These are literature values, as cited in US10238615B2 (Bracco S.P.A., priority 2011, dated 2019).

The structures appear in SMILES notation.

With `N[C@@H](Cc1cc(I)c(Oc2ccc(O)c(I)c2)c(I)c1)C(=O)O` [Example T3, 3,5,3′-triiodothyronine], the “Serum levels of thyreotropic hormone (TSH)” value in the data set with euthyroid rats is recorded as “significant reduction”. For the same compound, the “Plasma level of total T3 obtained by standard therapy” value (20 μg T3) was 196.6 ng/dL. Where the note is “synthetic T3 once administered”, the “Time of peak level in serum” value was 2 to 3 h and the “Time to complete clearance from blood” value is 12 to 24 h.
